“And” between values parts separate entries of the source, which are not always exact repeats. Identical values can stand only once.

Test [1] concerns hydrilla. The test can be described thus: Pretreatment aquatic weed bioassay: apical tips grown in fluridone-treated medium, pigments of new growth assayed. In kind it is in vivo, Hydrilla verticillata. From the text:
(§1) As disclosed above, fluridone treatments of the invention are integrated with assays to determine the efficacy of fluridone on the local plant population in the body of water under treatment, and desirably also with assays to determine the concentration of fluridone existing during the treatment program. For example, in the present invention, an aquatic weed bioassay can be used to determine the pre-treatment susceptibility of a target plant population to fluridone. Such an assay may for instance involve the collection of meristematic stem tissue or vegetative propagules at selected sites within a body of water to be treated. The sites of collection may be logged, for instance using coordinates defined by the global positioning satellite (GPS) system. […]
(§2) At the completion of the growth period, all new growth from the plants can be excised from the original plant tissue. […] After the extraction, the extracted sample is assayed to quantitate the levels of pigments, for example chlorophyll and/or β-carotene. […] For example, spectrophotometric absorbance measurements for chlorophyll may be taken at 645 and/or 662 nm; for β-carotene may be taken at 445 nm; and for phytoene may be taken at 287 and/or 347 nm. These measured values may be compared to control data (e.g. including curves generated using samples of known concentration) to determine the level of these substances in the samples. […]

In test [2] the test system is Eurasian watermilfoil. Description: Pretreatment aquatic weed bioassay: sampled plants exposed to fluridone, pigments assayed. Format: in vivo.
Text: as §1, §2

Test [3] relates to hydrilla. The test can be described thus: Field treatment of a water body with plant biochemical and water residue monitoring. In kind it is in vivo, Hydrilla verticillata. The source says:
(§3) Preferred methods of the present invention also involve plant biochemical testing conducted during the treatment. Thus, during the period in which a fluridone level is being maintained in the body of water under treatment, aquatic weed samples are obtained from the water body. This may involve, for example, collection of growing apical meristems from selected sites in the water body, preferably along with matched water samples from the same sites. Again, the sample sites can be logged using GPS or another suitable system to assist in future sampling and reference.
(§4) The aquatic weed plant samples can then be assessed to determine the effect of the maintained level of fluridone on the plants. To this end, the samples are first thoroughly washed and weighed. In a typical treatment, 6 to 12 samples per site will be collected. Similar to the discussions above, standard methods are then used to assay the level of pigments such as B-carotene, chlorophyll, and/or other relevant substances such as phytoene, in the tissue. […] The levels can be measured as discussed above using any suitable method such as spectrophotometry or fluorometry and appropriate standard curves. The measured values can then be utilized to determine whether any additional applications of fluridone or other adjustments are necessary to bring concentrations to levels that will be phytotoxic to the local aquatic weed population.
The biochemical assays discussed above, taken during treatment, are preferably used in conjunction with assays of water samples simultaneously taken, to determine the concentration of fluridone in the water body. […] The combination of measured fluridone concentration along with measured effect on plant health provides a particularly powerful method for the management of aquatic weeds in water bodies.
The Spring Creek Arm of Lake Seminole (5000 acres) was treated in May 2000 using a drip system that added fluridone based on flow rates in the river. […] Plant response to the treatment was monitored and threshold water concentrations were determined. […]

The test system of test [4] is Eurasian watermilfoil. The test can be described thus: Field treatment of a lake with fluridone. Format: in vivo.
Text: as §3
as §4, with “population. […]” for “population.”

Another test has as its system aquatic weeds. To be noted: cited from earlier work.

For “1-methyl-3phenyl-5-3-(trifluoromethyl)phenyl-4(1H)-pyridinone [fluridone]”, the “threshold concentration of fluridone (pigment concentrations in new growth)” value with hydrilla [1] (Example 1: hydrilla from 2500-acre Florida lake, 0, 3, 6, 12, 24 ppb, 12-day growth, no enhancement at 12 and 24 ppb) worked out at 6 ppb. In addition, the “lowest rate hydrilla is susceptible to (pretreatment assay)” value with hydrilla [1] (Spring Creek Arm of Lake Seminole hydrilla) was 5 ppb. The “threshold concentration of fluridone” value with Eurasian watermilfoil [2] (Example 3: Eurasian watermilfoil from Wolverine Lake, Michigan, 0, 3, 6, 9, 12, 15 ppb) was 6 ppb and 9 ppb. The “plant response below threshold” value in the test with Eurasian watermilfoil [2] (Wolverine Lake Eurasian watermilfoil, 3 ppb) was “rapid recovery of the plants”. For the same substance, the “weed control result of earlier treatment” value in the test on hydrilla [3] (Lake Eva, 1999 treatment) was “very poor control”. Further, the “lake concentration relative to control threshold (pigment assay)” value in the test on hydrilla [3] (Lake Eva, Central Florida, treated April 2000, target rate 15 ppb) is reported as “below thresholds required to provide control”. Besides, in the test with hydrilla [3] (Spring Creek Arm of Lake Seminole, drip system treatment, May 2000), the “plant response at downstream sites (plant sampling)” value is recorded as “lack of impact at several downstream sites”. Further, in the test with Eurasian watermilfoil [4] (Lake McKinney, Minnesota, treated late summer 1999, assessed end of following summer), the “weed control result of field treatment” value is “could no longer be found in the lake”. The “weed control result of previous field applications” value in the test with Eurasian watermilfoil [4] (Wolverine Lake, two applications at 5 and 6 ppb in the last 3 years) is “unsatisfactory results”. Also, the “susceptible concentration, less sensitive species” value in the test on aquatic weeds (other species, only higher concentrations) is 150 ppb. Moreover, in the test with aquatic weeds (some species, as low as), the “susceptible concentration, more sensitive species” value is recorded as “about 5 ppb”.

The record behind these values is patent US20020119891A1, “Integrated methods for control of aquatic weeds” (priority 2001, published 2002).
